Patent publication US5633233A, “Modified kojibiosides analogues” (priority 1995, dated 1997)
Where two headings read alike, the source gives them in different places. Each block holds one molecule with its values, some of them ahead of it.

How the values were obtained:
[1] = test system: α-glucosidase I from yeast microsomal preparation; settings: cited from earlier work
[2] = test system: α-glucosidase I from mung bean seedlings; settings: cited from earlier work
[3] = test system: α-glucosidase I from rat liver microsomes; settings: cited from earlier work
[4] = test system: α-glucosidase I from bovine mammary gland; settings: cited from earlier work
[5] = test system: α-glucosidase; settings: cited from earlier work
[6] = molecular target: T1, glucosidase I (Bos taurus, UniProt A0A3Q1M9D9); assay: Assay for glucosidase I activity (14C-Glc3Man9GlcNAc2 substrate, ConA-Sepharose, scintillation counting); assay type: biochemical, calf; settings: 1 mM concentration
T1 construct: Glucosidase I was solubilized from calf pancreas microsomes; from tissue; host or cells: calf pancreas microsomes
T1 sequence (A0A3Q1M9D9 1-839): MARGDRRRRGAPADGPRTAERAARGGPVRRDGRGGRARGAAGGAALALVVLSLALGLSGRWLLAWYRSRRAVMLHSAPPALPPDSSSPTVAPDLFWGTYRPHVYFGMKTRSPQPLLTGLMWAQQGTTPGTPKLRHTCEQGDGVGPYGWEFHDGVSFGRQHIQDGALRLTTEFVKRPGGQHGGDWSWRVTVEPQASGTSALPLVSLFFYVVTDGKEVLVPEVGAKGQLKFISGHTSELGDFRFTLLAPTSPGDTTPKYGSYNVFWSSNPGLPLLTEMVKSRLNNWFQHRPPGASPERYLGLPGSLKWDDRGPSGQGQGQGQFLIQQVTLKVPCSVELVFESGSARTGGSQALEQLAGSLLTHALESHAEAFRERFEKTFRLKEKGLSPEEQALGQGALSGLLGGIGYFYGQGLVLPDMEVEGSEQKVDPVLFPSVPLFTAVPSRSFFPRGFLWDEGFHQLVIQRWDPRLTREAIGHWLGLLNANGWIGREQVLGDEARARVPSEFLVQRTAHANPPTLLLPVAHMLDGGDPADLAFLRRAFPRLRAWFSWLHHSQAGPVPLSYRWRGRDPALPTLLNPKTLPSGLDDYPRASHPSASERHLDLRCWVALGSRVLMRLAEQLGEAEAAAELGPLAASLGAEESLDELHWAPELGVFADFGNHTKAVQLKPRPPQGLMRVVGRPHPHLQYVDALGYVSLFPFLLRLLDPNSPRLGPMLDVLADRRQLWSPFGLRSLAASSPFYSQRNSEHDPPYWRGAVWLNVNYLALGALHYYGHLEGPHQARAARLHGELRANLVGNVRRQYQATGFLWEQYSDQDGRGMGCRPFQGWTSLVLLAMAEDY
Description: Some of the compounds described herein were evaluated as inhibitors of glucosidase I activity. Glucosidase I was purified by a literature procedure as follows. To prepare an affinity matrix, carboxypentyl-deoxynojirimycin was coupled with Affigel 102 according to Shailubhai et al^51. Glucosidase I was solubilized from calf pancreas microsomes, and purified from glucosidase II activity by affinity chromatography according to the same authors.
Substrates for Assay of Glucosidase I ^14 C-labelled Glc3 Man9 GlcNAc2 -PP-Dol was prepared by the incubation of UDP-[^14 C]Glc with calf pancreas microsomes as described by Herscovien et al^52. Glc3 Man9 GlcNAc2 was released by mild acid hydrolysis and purified by BioGel P4 chromatography.
Assay for Glucosidase I Activity
Affinity purified glucosidase I was assayed as described by Saunier et al.^53 by adsorption of undigested substrate […] to ConA-Sepharose and scintillation counting of [^14 C]Glc in the column eluent. Oligosaccharides as potential inhibitors were evaluated using castanospermine as a baseline inhibitor.

[7] = affinity purified glucosidase I from calf pancreas microsomes, read-out: inhibition of glucosidase I activity

Structure (SMILES): OC[C@H]1O[C@H](O[C@H]2C(O)O[C@H](CO)[C@@H](O)[C@@H]2O)[C@H](O)[C@@H](O)[C@@H]1O (stereo partly drawn) [Kojibiose]
inhibition of α-glucosidase I [1]: inhibited
inhibition of α-glucosidase I [2]: inhibited
inhibition of α-glucosidase I [3]: inhibited
inhibition of α-glucosidase I [4]: inhibited

Structure (SMILES): C[C@H]1O[C@H](O[C@H]2[C@H](O)[C@@H](O)[C@@H](O[C@H]3[C@H](O)[C@@H](O)C(O)O[C@@H]3CO)O[C@@H]2CO)[C@H](O)[C@@H](O)[C@@H]1N[C@H]1C=C(CO)[C@@H](O)[C@H](O)[C@H]1O (stereo partly drawn) [acarbose]
α-glucosidase inhibition [5]: potent

inhibition at 1000 µM [6, 7]: 20%
Structure (SMILES): COC(=O)CCCCCCCCO[C@H]1O[C@H](CO)[C@@H](O)[C@H](O)[C@H]1O[C@H]1O[C@H](CO)[C@@H](O)[C@H](O)[C@H]1O [compound 44, 8-Methoxycarbonyloctyl 2-O-(α-D-glucopyranosyl)-α-D-glucopyranoside]

inhibition at 1000 µM ([6]; versus known compound 44, read-out: increase in inhibition activity relative to compound 44): 70%
inhibition at 1000 µM [6, 7]: 34%
Structure (SMILES): COC(=O)CCCCCCCCO[C@H]1O[C@H](CN)[C@@H](O)[C@H](O)[C@H]1O[C@H]1O[C@H](CO)[C@@H](O)[C@H](O)[C@H]1O [compound 57, 8-Methoxycarbonyloctyl 6-amino-6-deoxy-2-O-(α-D-glucopyranosyl)-α-D-glucopyranoside]

Structure (SMILES): C[C@H]1O[C@H](O[C@H]2[C@H](O)[C@@H](O)[C@@H](O[C@H]3[C@H](O)[C@@H](O)[C@@H](O)O[C@@H]3CO)O[C@@H]2CO)[C@H](O)[C@@H](O)[C@@H]1N[C@H]1C[C@H](CO)[C@@H](O)[C@H](O)[C@H]1O [dihydroacarbose]
α-glucosidase inhibition [5]: potent
